Measurements taken from publication PMC2996484 (Journal of neurochemistry, 2010).

What was measured:
[1] = system: PKC phosphorylation of the D1DAR; experiment: In situ phosphorylation assay, HEK293T cells expressing the D1DAR; format: cell-based, rat; details: cells treated 30 min with 1 μM phorbol ester, Fig. 1A
[2] = target: WT D1DAR (Rattus norvegicus, UniProt P18901); experiment: cAMP accumulation assay, HEK293T cells expressing WT D1DAR; format: cell-based; details: 1 μM PMA 30 min or 3 μM Gö6983 1 hr
[3] = target: PKC-null D1DAR (Rattus norvegicus, UniProt P18901, S259A/S397A/S398A/S417A/S421A); experiment: cAMP accumulation assay, HEK293T cells expressing PKC-null D1DAR; format: cell-based; details: 1 μM PMA 30 min or 3 μM Gö6983 1 hr
PKC-null D1DAR, sequence (P18901 whole entry S259A/S397A/S398A/S417A/S421A): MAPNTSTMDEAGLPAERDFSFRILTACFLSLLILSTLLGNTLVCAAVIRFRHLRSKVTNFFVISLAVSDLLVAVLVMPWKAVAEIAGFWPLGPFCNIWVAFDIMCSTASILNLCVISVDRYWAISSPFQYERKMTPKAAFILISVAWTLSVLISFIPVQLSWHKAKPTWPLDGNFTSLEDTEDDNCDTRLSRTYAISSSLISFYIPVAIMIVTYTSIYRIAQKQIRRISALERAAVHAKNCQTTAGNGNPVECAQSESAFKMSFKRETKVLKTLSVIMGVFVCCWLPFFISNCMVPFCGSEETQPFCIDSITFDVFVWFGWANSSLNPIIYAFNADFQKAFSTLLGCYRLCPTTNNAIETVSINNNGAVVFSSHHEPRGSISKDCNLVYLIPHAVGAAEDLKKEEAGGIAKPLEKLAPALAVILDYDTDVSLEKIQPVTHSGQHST

WT D1DAR, sequence (P18901 whole entry): as the sequence (P18901 whole entry S259A/S397A/S398A/S417A/S421A) above, with A259S, A397S, A398S, A417S, A421S counted along it

SMILES | D1DAR phosphorylation above basal [1] | effect of pretreatment on maximal DA-stimulated cAMP accumulation [2] | effect of pretreatment on maximal DA-stimulated cAMP accumulation [3]
CCCCCCCCCC(=O)O[C@@H]1[C@@H](C)[C@@]2(O)[C@@H](C=C(CO)C[C@@]3(O)C(=O)C(C)=C[C@@H]23)[C@@H]2C(C)(C)[C@]12OC(=O)CCCCCCCCC [4αPDD, 4α-phorbol-12,13-didecanoate] | inactive | – | –
COc1ccc2c(c1)c(C1=C(c3c[nH]c4ccccc34)C(=O)NC1=O)cn2CCCN(C)C [Gö6983] | – | potentiation of the maximal amount of D1DAR-stimulated cAMP accumulation | no longer displays an enhancement of cAMP accumulation
CCCC(=O)O[C@@H]1[C@@H](C)[C@@]2(O)[C@@H](C=C(CO)C[C@]3(O)C(=O)C(C)=C[C@@H]23)[C@@H]2C(C)(C)[C@]12OC(=O)CCC [PDBu, phorbol 12,13 dibutyrate] | robust increase in phosphorylation | – | –
CCCCCCCCCCCCCC(=O)O[C@@H]1[C@@H](C)[C@@]2(O)[C@@H](C=C(CO)C[C@]3(O)C(=O)C(C)=C[C@@H]23)[C@@H]2C(C)(C)[C@]12OC(C)=O [PMA, phorbol 12-myristate 13-acetate] | robust increase in phosphorylation | potentiation of the maximal amount of D1DAR-stimulated cAMP accumulation | potentiation of maximal cAMP accumulation
